Results as given in patent publication US5137811A, “Method for diagnosing periodontal diseases with a substrate specific for aminopeptidase activity of periodontopathic bacteria” (Sunstar Kabushiki Kaisha, priority 1986, dated 1992).
Where a SMILES comes first, the peptide text is derived from it. The star is where a group is joined. βNA = c1ccc2cc(N*)ccc2c1; Cbz = O=C(OCc1ccccc1)*; Bz = O=C(c1ccccc1)*

What was measured:
[1] = system: Capnocytophaga sp.; experiment: Hydrolytic activity of oral anaerobe cell suspension on aminopeptidase substrates (Experiment 1); format: cell-based; conditions: four strains, substrate 0.2 mM, pH 7.0, 37° C., 60 minutes, Table 1
Method: (§1) Oral anaerobes, i.e., four strains of Treponema denticola, five strains of B. gingivalis, four strains of Actinobacillus actinomycetemcomitans, four strains of Capnocytophaga sp. and three strains of Fusobacterium nucleatum were tested for hydrolytic activity to the substrate of aminopeptidase enzyme as follows.
(§2) The strains of Treponema were anaerobically cultivated using TYGVS media at 37° C. for 7 days, while other bacterial strains were cultivated using brain heart infusion broth at 37° C. for 48 to 72 hours. Each culture was diluted to obtain a bacterial cell suspension, the absorption at 660 nm of which was 1.0.
(§3) Substrate compounds for aminopeptidase enzyme having various color developing groups derived from β-naphthylamine were dissolved in 0.1M Tris-HCl buffer (pH 7.0) at the concentration of 0.2 mM to obtain substrate solutions.
(§4) To the substrate solution (1.5 ml) was added the above cell suspension (0.3 ml) and reacted at 37° C. for 60 minutes. After completion of the reaction, a coloring reagent [prepared by dissolving diazonium salt of Garnet GBC in 1M acetate buffer (containing 10% Tween 20, pH: 4.2) at the concentration of 0.5 mg/ml] was added and, after 15 minutes, the absorption at 525 nm was determined with a spectrophotometer.
(§5) On the basis of the average amount of released β-naphthylamine in each strain, the hydrolytic activity was expressed as follows: […]

[2] = system: Fusobacterium nucleatum; experiment: as above; format: cell-based; conditions: three strains, substrate 0.2 mM, pH 7.0, 37° C., 60 minutes, Table 1
Method: as §1, §2, §3, §4, §5

[3] = system: Bacteroides gingivalis; experiment: as above; format: cell-based; conditions: five strains, substrate 0.2 mM, pH 7.0, 37° C., 60 minutes, Table 1
Method: as §1, §2, §3, §4, §5

[4] = system: Actinobacillus actinomycetemcomitans; experiment: as above; format: cell-based; conditions: four strains, substrate 0.2 mM, pH 7.0, 37° C., 60 minutes, Table 1
Method: as §1, §2, §3, §4, §5

[5] = system: Treponema denticola; experiment: as above; format: cell-based; conditions: four strains, substrate 0.2 mM, pH 7.0, 37° C., 60 minutes, Table 1
Method: as §1, §2, §3, §4, §5

[6] = system: periodontopathic bacteria specific aminopeptidase activity; experiment: Hydrolytic activity of gingival crevicular fluid specimens, visually evaluated (Experiment 4); format: biochemical; set-up: key: -: orange; +: dark orange; ++: brown; +++: dark brown
Method: as §3, §4
Specimens of gingival crevicular fluid were collected with paper points from five subjects who were considered to be healthy from their clinical state, six subjects with gingivitis and six subjects with periodontitis. Each specimen was dispersed in Ringer's solution (1.5 ml), and the relative amount of spirochete to total bacteria: [formula] was determined with a phase contrast microscope. Further, the Ringer's solution (0.3 ml) was tested for hydrolytic activity using the substrate solution prepared in the same manner as described in Experiment 1. As substrates, there were used compounds of the formula [1], i.e., N-benzoylvalyl-glycyl-arginine-β-naphthylamide (BzVGR) and N-carbobenzoxy-valyl-glycyl-arginine-β-naphthylamide (CxVGR) were used.
In table 4, hydrolytic activity was visually evaluated and expressed as follows: […]

SMILES | hydrolytic activity (average amount of released β-naphthylamine) [1] | hydrolytic activity (average amount of released β-naphthylamine) [2] | hydrolytic activity (average amount of released β-naphthylamine) [3] | hydrolytic activity (average amount of released β-naphthylamine) [4] | hydrolytic activity (average amount of released β-naphthylamine) [5] | also measured
N=C(N)NCCC[C@H](NC(=O)[C@H](CCCCN)NC(=O)OCc1ccccc1)C(=O)Nc1ccc2ccccc2c1 [CxKR, N-carbobenzoxy-lysyl-arginine-β-naphthylamide] (Cbz-Lys-Arg-βNA) | - (release amount<5 nmol/ml) | - (release amount<5 nmol/ml) | ++ (20 ≤release amount<40 nmol/ml) | - (release amount<5 nmol/ml) | ++ (20 ≤release amount<40 nmol/ml) | 
N=C(N)NCCC[C@H](NC(=O)[C@@H](N)Cc1ccccc1)C(=O)Nc1ccc2ccccc2c1 [FR, phenylalanyl-arginine-β-naphthylamide] (H-Phe-Arg-βNA) | ± (5 ≤release amount<10 nmol/ml) | - (release amount<5 nmol/ml) | + (10 ≤release amount<20 nmol/ml) | - (release amount<5 nmol/ml) | + (10 ≤release amount<20 nmol/ml) | 
N=C(N)NCCC[C@H](NC(=O)[C@@H](N)CCCCN)C(=O)Nc1ccc2ccccc2c1 [KR, lysyl-arginine-β-naphthylamide] (H-Lys-Arg-βNA) | + (10 ≤release amount<20 nmol/ml) | - (release amount<5 nmol/ml) | ++ (20 ≤release amount<40 nmol/ml) | - (release amount<5 nmol/ml) | + (10 ≤release amount<20 nmol/ml) | 
N=C(N)NCCC[C@H](NC(=O)OCc1ccccc1)C(=O)N[C@@H](CCCNC(=N)N)C(=O)Nc1ccc2ccccc2c1 [CxRR, N-carbobenzoxy-arginyl-arginine-β-naphthylamide] (Cbz-Arg-Arg-βNA) | - (release amount<5 nmol/ml) | - (release amount<5 nmol/ml) | +++ (release amount≥40 nmol/ml) | - (release amount<5 nmol/ml) | + + | 
NCC(=O)N[C@@H](Cc1ccccc1)C(=O)Nc1ccc2ccccc2c1 [GF, glycyl-phenylalanine-β-naphthylamide, reference compound] (H-Gly-Phe-βNA) | ± (5 ≤release amount<10 nmol/ml) | - (release amount<5 nmol/ml) | ++ (20 ≤release amount<40 nmol/ml) | - (release amount<5 nmol/ml) | - (release amount<5 nmol/ml) | 
NCCCC[C@H](NC(=O)CN)C(=O)Nc1ccc2ccccc2c1 [GK, glycyl-lysine-β-naphthylamide, reference compound] (H-Gly-Lys-βNA) | + (10 ≤release amount<20 nmol/ml) | - (release amount<5 nmol/ml) | + (10 ≤release amount<20 nmol/ml) | - (release amount<5 nmol/ml) | - (release amount<5 nmol/ml) | 
N=C(N)NCCC[C@H](NC(=O)[C@H](Cc1ccccc1)NC(=O)OCc1ccccc1)C(=O)Nc1ccc2ccccc2c1 [CxFR, N-carbobenzoxy-phenylalanyl-arginine-β-naphthylamide] (Cbz-Phe-Arg-βNA) | - (release amount<5 nmol/ml) | - (release amount<5 nmol/ml) | +++ (release amount≥40 nmol/ml) | - (release amount<5 nmol/ml) | +++ (release amount≥40 nmol/ml) | 
N=C(N)NCCC[C@H](NC(=O)[C@H](Cc1ccccc1)NC(=O)[C@@H]1CCCN1)C(=O)Nc1ccc2ccccc2c1 [PFR, prolyl-phenylalanyl-arginine-β-naphthylamide] (H-Pro-Phe-Arg-βNA) | - (release amount<5 nmol/ml) | - (release amount<5 nmol/ml) | +++ (release amount≥40 nmol/ml) | - (release amount<5 nmol/ml) | +++ (release amount≥40 nmol/ml) | 
CC(C)[C@H](NC(=O)c1ccccc1)C(=O)NCC(=O)N[C@@H](CCCNC(=N)N)C(=O)Nc1ccc2ccccc2c1 [BzVGR, N-benzoyl-valyl-glycyl-arginine-β-naphthylamide] (Bz-Val-Gly-Arg-βNA) | - (release amount<5 nmol/ml) | - (release amount<5 nmol/ml) | +++ (release amount≥40 nmol/ml) | - (release amount<5 nmol/ml) | +++ (release amount≥40 nmol/ml) | hydrolytic activity, visually evaluated ([6]; Gingivitis subject 1 (spirochete 7.3 %)): +; hydrolytic activity, visually evaluated ([6]; Gingivitis subject 2 (spirochete 16.7 %)): +; hydrolytic activity, visually evaluated ([6]; Gingivitis subject 3 (spirochete 20.5 %)): ++; hydrolytic activity, visually evaluated ([6]; Gingivitis subject 4 (spirochete 6.8 %)): -; hydrolytic activity, visually evaluated ([6]; Gingivitis subject 5 (spirochete 7.3 %)): -; hydrolytic activity, visually evaluated ([6]; Gingivitis subject 6 (spirochete 14.4 %)): +; hydrolytic activity, visually evaluated ([6]; Healthy subject 1 (spirochete 0.1 %)): -; hydrolytic activity, visually evaluated ([6]; Healthy subject 2 (spirochete 2.5 %)): +; hydrolytic activity, visually evaluated ([6]; Healthy subject 3 (spirochete 1.1 %)): -; hydrolytic activity, visually evaluated ([6]; Healthy subject 4 (spirochete 0.6 %)): -; hydrolytic activity, visually evaluated ([6]; Healthy subject 5 (spirochete 1.3 %)): -; hydrolytic activity, visually evaluated ([6]; Periodontitis subject 1 (spirochete 45.2 %)): +++; hydrolytic activity, visually evaluated ([6]; Periodontitis subject 2 (spirochete 30.3 %)): +++; hydrolytic activity, visually evaluated ([6]; Periodontitis subject 3 (spirochete 34.6 %)): +++; hydrolytic activity, visually evaluated ([6]; Periodontitis subject 4 (spirochete 21.2 %)): +++; hydrolytic activity, visually evaluated ([6]; Periodontitis subject 5 (spirochete 40.3 %)): +++; hydrolytic activity, visually evaluated ([6]; Periodontitis subject 6 (spirochete 35.1 %)): +++
N=C(N)NCCC[C@H](NC(=O)[C@@H](N)CCCNC(=N)N)C(=O)Nc1ccc2ccccc2c1 [RR, arginyl-arginine-β-naphthylamide] (H-Arg-Arg-βNA) | + (10 ≤release amount<20 nmol/ml) | - (release amount<5 nmol/ml) | + (10 ≤release amount<20 nmol/ml) | - (release amount<5 nmol/ml) | +++ (release amount≥40 nmol/ml) | 
N=C(N)NCCC[C@H](N)C(=O)NCC(=O)Nc1ccc2ccccc2c1 [RG, arginyl-glycine-β-naphthylamide, reference compound] (H-Arg-Gly-βNA) | + (10 ≤release amount<20 nmol/ml) | - (release amount<5 nmol/ml) | ++ (20 ≤release amount<40 nmol/ml) | - (release amount<5 nmol/ml) | - (release amount<5 nmol/ml) | 
